Data published in ChEMBL document CHEMBL4308841, “Synthesis, in vitro antiproliferative activity, and kinase inhibitory effects of pyrazole-containing diarylureas and diarylamides” (Eur J Med Chem, 2018).

Columns and labels:
SW-620 = assay: Growth inhibition of human SW620 cells assessed as cell growth at 0.1 uM incubated for 48 hrs by sulforhodamine B assay relative to control; assay type: functional; conditions: SW-620, 48 h, read-out: Activity
OVCAR-8 = assay: Growth inhibition of human OVCAR8 cells incubated for 48 hrs by sulforhodamine B assay; assay type: functional, cell-based; conditions: OVCAR-8, 48 h
MOLT-4 = assay: Growth inhibition of human MOLT4 cells assessed as cell growth at 0.1 uM incubated for 48 hrs by sulforhodamine B assay relative to control; assay type: functional; conditions: MOLT-4, 48 h, read-out: Activity
BT-549 [1] = assay: Growth inhibition of human BT549 cells incubated for 48 hrs by sulforhodamine B assay; assay type: functional, cell-based; conditions: BT-549, 48 h
SF-539 [2] = assay: Growth inhibition of human SF539 cells assessed as cell growth at 0.01 uM incubated for 48 hrs by sulforhodamine B assay relative to control; assay type: functional; conditions: SF-539, 48 h, read-out: Activity
CCRF-CEM = assay: Growth inhibition of human CCRF-CEM cells assessed as cell growth at 1 uM incubated for 48 hrs by sulforhodamine B assay relative to control; assay type: functional; conditions: read-out: Activity
MDA-MB-231 = assay: Growth inhibition of human MDA-MB-231 cells incubated for 48 hrs by sulforhodamine B assay; assay type: functional, cell-based; conditions: MDA-MB-231, 48 h
DU-145 = assay: Growth inhibition of human DU145 cells assessed as cell growth at 0.01 uM incubated for 48 hrs by sulforhodamine B assay relative to control; assay type: functional; conditions: DU-145, 48 h, read-out: Activity
MCF7 = assay: Growth inhibition of human MCF7 cells assessed as cell growth at 0.1 uM incubated for 48 hrs by sulforhodamine B assay relative to control; assay type: functional; conditions: MCF7, 48 h, read-out: Activity
K562 = assay: Growth inhibition of human K562 cells incubated for 48 hrs by sulforhodamine B assay; assay type: functional, cell-based; conditions: K562, 48 h
OVCAR-3 = assay: Growth inhibition of human OVCAR3 cells assessed as cell growth at 0.01 uM incubated for 48 hrs by sulforhodamine B assay relative to control; assay type: functional; conditions: OVCAR-3, 48 h, read-out: Activity
SF-539 [3] = assay: Growth inhibition of human SF539 cells assessed as cell growth at 1 uM incubated for 48 hrs by sulforhodamine B assay relative to control; assay type: functional; conditions: SF-539, 48 h, read-out: Activity
UACC-257 = assay: Growth inhibition of human UACC257 cells incubated for 48 hrs by sulforhodamine B assay; assay type: functional, cell-based; conditions: UACC-257, 48 h
M14 = assay: Growth inhibition of human M14 cells assessed as cell growth at 100 uM incubated for 48 hrs by sulforhodamine B assay relative to control; assay type: functional; conditions: M14, 48 h, read-out: Activity
NCI-H23 = assay: Growth inhibition of human NCI-H23 cells assessed as cell growth at 0.1 uM incubated for 48 hrs by sulforhodamine B assay relative to control; assay type: functional; conditions: NCI-H23, 48 h, read-out: Activity
HOP-62 = assay: Growth inhibition of human HOP62 cells assessed as cell growth at 0.01 uM incubated for 48 hrs by sulforhodamine B assay relative to control; assay type: functional; conditions: HOP-62, 48 h, read-out: Activity
LOX IMVI = assay: Growth inhibition of human LOXIMVI cells assessed as cell growth at 0.01 uM incubated for 48 hrs by sulforhodamine B assay relative to control; assay type: functional; conditions: read-out: Activity
HCC 2998 = assay: Growth inhibition of human HCC2998 cells assessed as cell growth at 100 uM incubated for 48 hrs by sulforhodamine B assay relative to control; assay type: functional; conditions: HCC 2998, 48 h, read-out: Activity
KM12 [4] = assay: Growth inhibition of human KM12 cells assessed as cell growth at 0.1 uM incubated for 48 hrs by sulforhodamine B assay relative to control; assay type: functional; conditions: KM12, 48 h, read-out: Activity
A549 = assay: Growth inhibition of human A549/ATCC cells assessed as cell growth at 0.1 uM incubated for 48 hrs by sulforhodamine B assay relative to control; assay type: functional; conditions: A549, 48 h, read-out: Activity
SK-MEL-2 = assay: Growth inhibition of human SK-MEL-2 cells assessed as cell growth at 100 uM incubated for 48 hrs by sulforhodamine B assay relative to control; assay type: functional; conditions: SK-MEL-2, 48 h, read-out: Activity
MDA-MB-468 = assay: Growth inhibition of human MDA-MB-468 cells assessed as cell growth at 1 uM incubated for 48 hrs by sulforhodamine B assay relative to control; assay type: functional; conditions: MDA-MB-468, 48 h, read-out: Activity
UO-31 = assay: Growth inhibition of human UO31 cells incubated for 48 hrs by sulforhodamine B assay; assay type: functional, cell-based; conditions: UO-31, 48 h
KM12 [5] = assay: Growth inhibition of human KM12 cells assessed as cell growth at 0.01 uM incubated for 48 hrs by sulforhodamine B assay relative to control; assay type: functional; conditions: KM12, 48 h, read-out: Activity
RXF 393 = assay: Growth inhibition of human RXF393 cells assessed as cell growth at 0.1 uM incubated for 48 hrs by sulforhodamine B assay relative to control; assay type: functional; conditions: RXF 393, 48 h, read-out: Activity
HCT-116 = assay: Growth inhibition of human HCT116 cells incubated for 48 hrs by sulforhodamine B assay; assay type: functional, cell-based; conditions: HCT-116, 48 h
BT-549 [6] = assay: Growth inhibition of human BT549 cells assessed as cell growth at 1 uM incubated for 48 hrs by sulforhodamine B assay relative to control; assay type: functional; conditions: BT-549, 48 h, read-out: Activity
COLO 205 = assay: Growth inhibition of human COLO205 cells assessed as cell growth at 0.01 uM incubated for 48 hrs by sulforhodamine B assay relative to control; assay type: functional; conditions: COLO 205, 48 h, read-out: Activity
[7] = read-out: LC50 (the source's name)
[8] = read-out: pLC50 (the source's name) (converted)

O=C(Nc1cccc(-n2cc(-c3ccncc3)c(-c3cc(O)cc(Cl)c3)n2)c1)c1cc(C(F)(F)F)cc(C(F)(F)F)c1
growth at 0.1 µM (SW-620): 98%
GI50 (OVCAR-8; read-out: GI50): 3.58 µM
CC50 (OVCAR-8; [7]): > 100 µM
TGI (OVCAR-8; read-out: TGI): > 100 µM
GI50 (OVCAR-8; read-out: pGI50 (converted)): 3.55 µM
CC50 (OVCAR-8; [8]): > 100 µM
TGI (OVCAR-8; read-out: pTGI (converted)): > 100 µM
growth at 0.1 µM (MOLT-4): 89%
GI50 (BT-549 [1]; read-out: GI50): 4.58 µM
CC50 (BT-549 [1]; [7]): > 100 µM
TGI (BT-549 [1]; read-out: TGI): 48.8 µM
GI50 (BT-549 [1]; read-out: pGI50 (converted)): 4.68 µM
CC50 (BT-549 [1]; [8]): > 100 µM
TGI (BT-549 [1]; read-out: pTGI (converted)): 46.8 µM
growth at 0.01 µM (SF-539 [2]): 98%
growth at 1 µM (CCRF-CEM): 56%
GI50 (MDA-MB-231; read-out: GI50): 1.42 µM
CC50 (MDA-MB-231; [7]): 77.8 µM
TGI (MDA-MB-231; read-out: TGI): 33.2 µM
GI50 (MDA-MB-231; read-out: pGI50 (converted)): 1.41 µM
CC50 (MDA-MB-231; [8]): 7.76 µM
TGI (MDA-MB-231; read-out: pTGI (converted)): 3.31 µM
growth at 0.01 µM (DU-145): 104%
growth at 0.1 µM (MCF7): 92%
GI50 (K562; read-out: GI50): 3.24 µM
LC50 (K562; read-out: LC50): > 100 µM
TGI (K562; read-out: TGI): > 100 µM
GI50 (K562; read-out: pGI50 (converted)): 3.24 µM
LC50 (K562; read-out: pLC50 (converted)): > 100 µM
TGI (K562; read-out: pTGI (converted)): > 100 µM
growth at 0.01 µM (OVCAR-3): 102%
growth at 1 µM (SF-539 [3]): 91%
GI50 (UACC-257; read-out: GI50): 4.23 µM
CC50 (UACC-257; [7]): > 100 µM
TGI (UACC-257; read-out: TGI): 51.2 µM
GI50 (UACC-257; read-out: pGI50 (converted)): 4.27 µM
CC50 (UACC-257; [8]): > 100 µM
TGI (UACC-257; read-out: pTGI (converted)): 51.3 µM
growth at 100 µM (M14): 5%
growth at 0.1 µM (NCI-H23): 95%
growth at 0.01 µM (HOP-62): 103%
growth at 0.01 µM (LOX IMVI): 101%
growth at 100 µM (HCC 2998): -34%
growth at 0.1 µM (KM12 [4]): 97%
growth at 0.1 µM (A549): 95%
growth at 100 µM (SK-MEL-2): -43%
growth at 1 µM (MDA-MB-468): 52%
IC50 (UO-31): 2.5 µM
GI50 (UO-31; read-out: GI50): 2.5 µM
CC50 (UO-31; [7]): > 100 µM
TGI (UO-31; read-out: TGI): > 100 µM
GI50 (UO-31; read-out: pGI50 (converted)): 2.51 µM
CC50 (UO-31; [8]): > 100 µM
TGI (UO-31; read-out: pTGI (converted)): > 100 µM
growth at 0.01 µM (KM12 [5]): 96%
growth at 0.1 µM (RXF 393): 94%
IC50 (HCT-116): 3.23 µM
GI50 (HCT-116; read-out: GI50): 3.23 µM
CC50 (HCT-116; [7]): > 100 µM
TGI (HCT-116; read-out: TGI): > 100 µM
GI50 (HCT-116; read-out: pGI50 (converted)): 3.24 µM
CC50 (HCT-116; [8]): > 100 µM
TGI (HCT-116; read-out: pTGI (converted)): > 100 µM
growth at 1 µM (BT-549 [6]): 101%
growth at 0.01 µM (COLO 205): 102%
